# Test results published in the NIST ThermoML archive (doi:10.1021/je400205g).
# Numbers after ± are expanded uncertainties.
# Details: Transpiration method
Compound,"vapor or sublimation pressure (263.15 K, Liquid) [kPa]","vapor or sublimation pressure (278.15 K, Liquid) [kPa]","vapor or sublimation pressure (293.15 K, Liquid) [kPa]","vapor or sublimation pressure (308.15 K, Liquid) [kPa]","vapor or sublimation pressure (309.15 K, Liquid) [kPa]",other results
O=C(O)C(F)(F)OC(F)(F)C(F)(F)OC(F)(F)F,0.00451 ± 0.0011,0.02238 ± 0.0014,0.09288 ± 0.0041,0.3168 ± 0.013,,
CCOC(=O)C(F)(F)C(F)(F)C(F)(F)C(F)(F)C(F)(F)C(F)(F)C(F)(F)F [ethyl perfluorooctanoate],0.00516 ± 0.0011,0.02313 ± 0.0014,0.08988 ± 0.0038,0.2649 ± 0.011,,
"OCCCC(F)(F)C(F)(F)C(F)(F)C(F)(F)F [4,4,5,5,6,6,7,7,7-nonafluoro-1-heptanol]",,,0.05717 ± 0.0027,,0.217 ± 0.0086,"vapor or sublimation pressure (255.65 K, Liquid): 0.00087 ± 8e-05 kPa; vapor or sublimation pressure (273.15 K, Liquid): 0.00765 ± 0.00033 kPa; vapor or sublimation pressure (282.45 K, Liquid): 0.02121 ± 0.00096 kPa"
"O=C(O)C(F)(F)C(F)(F)C(F)(F)C(F)(F)C(F)(F)F [2,2,3,3,4,4,5,5,6,6,6-undecafluorohexanoic acid]",,,0.044 ± 0.0022,0.1656 ± 0.0068,,"vapor or sublimation pressure (263.15 K, Crystal): 0.00126 ± 0.001 kPa; vapor or sublimation pressure (270.15 K, Crystal): 0.00294 ± 0.001 kPa; vapor or sublimation pressure (278.15 K, Crystal): 0.00791 ± 0.0011 kPa; vapor or sublimation pressure (283.15 K, Crystal): 0.0134 ± 0.0012 kPa; vapor or sublimation pressure (285.15 K, Crystal): 0.01726 ± 0.0014 kPa; vapor or sublimation pressure (290.15 K, Crystal): 0.03551 ± 0.0018 kPa; vapor or sublimation pressure (300.15 K, Liquid): 0.08434 ± 0.0037 kPa"
C=CC(F)(F)C(F)(F)C(F)(F)C(F)(F)C(F)(F)C(F)(F)C(F)(F)C(F)(F)F,,,,,0.978 ± 0.039,"vapor or sublimation pressure (254.15 K, Liquid): 0.01269 ± 0.00078 kPa; vapor or sublimation pressure (272.45 K, Liquid): 0.06823 ± 0.003 kPa; vapor or sublimation pressure (290.75 K, Liquid): 0.2843 ± 0.012 kPa"
